Results reported in ChEMBL document CHEMBL4428126, “Identification and Structural Characterization of Three New Metabolites of Bupropion in Humans” (ACS Med Chem Lett, 2016).

Tests used:
[1] = Drug metabolism in human liver cytosol assessed as formation of metabolites with m/z transitions of 258 to 184 at 10 uM preincubated for 5 mins followed by addition of NADPH measured after 20 mins by LC-MS/MS analysis; type: ADME, subcellular
[2] = Drug level in human liver microsome treated with bupropion at 10 uM preincubated for 5 mins followed by addition of NADPH measured after 20 mins by LC-MS/MS analysis; type: ADME; conditions: microsomes
[3] = Drug recovery in urine of human treated with bupropion assessed as free drug level administered orally measured over steady state dosing interval; type: ADME, tissue-based; conditions: po
[4] = Drug excretion in acid deconjugated urine of human subjects treated with 300 mg/day bupropion by LC/MS/MS analysis; type: ADME, tissue-based
[5] = Drug recovery in urine of human treated with bupropion assessed as conjugated drug level administered orally measured over steady state dosing interval; type: ADME; conditions: po
[6] = Drug metabolism in human liver microsomes assessed as hydroxylation of t-butyl group preincubated for 5 mins followed by addition of NADPH measured after 20 mins by LC-MS/MS analysis; type: ADME, Microsome
Cytochrome P450 2C19 [7] = target: T1, Cytochrome P450 2C19 (Homo sapiens, UniProt P33261); assay: Drug metabolism assessed as recombinant CYP2C19 (unknown origin)-mediated threo-4'-OH-bupropion formation at 1 uM preincubated for 5 mins followed by addition of NADPH measured after 20 mins by LC-MS/MS method; type: ADME; conditions: recombinant enzyme
[8] = Drug metabolism in human liver microsomes assessed as formation of metabolites with m/z transitions of 258 to 184 at 10 uM preincubated for 5 mins followed by addition of NADPH measured after 20 mins by LC-MS/MS analysis; type: ADME, Microsome
Cytochrome P450 2C19 [9] = target: T1, Cytochrome P450 2C19; assay: Drug metabolism assessed as recombinant CYP2C19 (unknown origin)-mediated erythro-4'-OH-bupropion formation at 1 uM preincubated for 5 mins followed by addition of NADPH measured after 20 mins by LC-MS/MS method; type: ADME; conditions: recombinant enzyme
[10] = Drug level in plasma of human subjects assessed as compound formation treated with 300 mg/day bupropion by LC/MS/MS analysis; type: ADME, cell-free
[11] = Drug level in human liver microsomes treated with 10 uM erythrohydrobupropion assessed as compound formation with m/z transitions of 258 to 184 preincubated for 5 mins followed by addition of NADPH measured after 20 mins by LC-MS/MS analysis; type: ADME, Microsome
[12] = Drug metabolism in acid deconjugated urine of human subjects assessed as metabolite M4 formation at 300 mg/day by LC/MS/MS analysis; type: ADME, tissue-based
[13] = Drug metabolism in acid deconjugated urine of human subjects assessed as metabolite M7 formation at 300 mg/day by LC/MS/MS analysis; type: ADME, tissue-based
[14] = Drug excretion in human urine assessed as m-chlorohippuric acid administered as single oral dosage; type: ADME, tissue-based
[15] = Drug metabolism in human plasma assessed as 4'-OH-bupropion formation at 300 mg/day by LC/MS/MS analysis; type: ADME, cell-free
[16] = Drug metabolism in plasma of human subjects assessed as metabolite M6 formation at 300 mg/day by LC/MS/MS analysis; type: ADME, cell-free
[17] = Drug metabolism in human liver microsomes assessed as NADPH-dependant 4'-OH-bupropion formation at 10 uM preincubated for 5 mins followed by addition of NADPH measured after 20 mins by LC-MS/MS analysis; type: ADME, Microsome
[18] = Drug recovery in human urine assessed as erythrohydrobupropion administered as single oral dosage; type: ADME, tissue-based
[19] = Plasma concentration in human assessed as threo-4'-OH-bupropion at 300 mg/day by LC/MS/MS analysis; type: ADME, cell-free
[20] = Plasma concentration in human assessed as 4'-OH-bupropion at 300 mg/day by LC/MS/MS analysis; type: ADME, cell-free
[21] = Drug recovery in human urine assessed as OH-bupropion administered as single oral dosage; type: ADME, tissue-based
[22] = Drug recovery in human urine assessed as free drug level administered orally measured over steady state dosing interval; type: ADME, tissue-based; conditions: po
[23] = Drug metabolism in acid deconjugated urine of human subjects assessed as metabolite M6 formation at 300 mg/day by LC/MS/MS analysis; type: ADME, tissue-based
Cytochrome P450 2C19 [24] = target: T1, Cytochrome P450 2C19; assay: Drug metabolism assessed as recombinant CYP2C19 (unknown origin)-mediated 4'-OH-bupropion formation at 1 uM preincubated for 5 mins followed by addition of NADPH measured after 20 mins by LC-MS/MS method; type: ADME; conditions: recombinant enzyme
[25] = Drug metabolism in human plasma assessed as metabolite M2 formation at 300 mg/day by LC/MS/MS analysis; type: ADME, cell-free
[26] = Drug metabolism in acid deconjugated urine of human subjects assessed as metabolite M3 formation at 300 mg/day by LC/MS/MS analysis; type: ADME, tissue-based
[27] = Drug metabolism in human liver microsomes assessed as NADPH-dependant metabolite formation at 10 uM preincubated for 5 mins followed by addition of NADPH measured after 20 mins by LC-MS/MS analysis; type: ADME, Microsome
[28] = Drug metabolism in human urine assessed as metabolite M2 formation at 300 mg/day by LC/MS/MS analysis-MS analysis; type: ADME, tissue-based
[29] = Drug metabolism in plasma of human subjects assessed as metabolite M4 formation at 300 mg/day by LC/MS/MS analysis; type: ADME, cell-free
[30] = Drug recovery in human urine assessed as threohydrobupropion administered as single oral dosage; type: ADME, tissue-based
[31] = Drug recovery in human urine assessed as free and conjugated drug level administered orally measured over steady state dosing interval; type: ADME, tissue-based; conditions: po
[32] = Drug excretion in human urine assessed as 4'-OH-bupropion formation at 300 mg/day by LC/MS/MS analysis; type: ADME, tissue-based
[33] = Plasma concentration in human assessed as erythro-4'-OH-bupropion at 300 mg/day by LC/MS/MS analysis; type: ADME, cell-free
[34] = Drug recovery in human urine assessed as conjugated drug level administered orally measured over steady state dosing interval; type: ADME, tissue-based; conditions: po
[35] = Drug metabolism in plasma of human subjects assessed as metabolite M7 formation at 300 mg/day by LC/MS/MS analysis; type: ADME, cell-free
[36] = Drug excretion in human urine assessed as polar metabolites formation administered as single oral dosage; type: ADME, tissue-based
[37] = Drug recovery in human urine administered as single oral dosage; type: ADME, tissue-based; conditions: read-out: Drug recovery
[38] = Drug level in human liver microsomes treated with 10 uM threohydrobupropion assessed as compound formation with m/z transitions of 258 to 184 preincubated for 5 mins followed by addition of NADPH measured after 20 mins by LC-MS/MS analysis; type: ADME, Microsome
[39] = Drug level in human liver microsomes treated with threohydrobupropion-d9 assessed as hydroxylation of t-butyl group preincubated for 5 mins followed by addition of NADPH measured after 20 mins by LC-MS/MS analysis; type: ADME, Microsome

T1 sequence (P33261 whole entry): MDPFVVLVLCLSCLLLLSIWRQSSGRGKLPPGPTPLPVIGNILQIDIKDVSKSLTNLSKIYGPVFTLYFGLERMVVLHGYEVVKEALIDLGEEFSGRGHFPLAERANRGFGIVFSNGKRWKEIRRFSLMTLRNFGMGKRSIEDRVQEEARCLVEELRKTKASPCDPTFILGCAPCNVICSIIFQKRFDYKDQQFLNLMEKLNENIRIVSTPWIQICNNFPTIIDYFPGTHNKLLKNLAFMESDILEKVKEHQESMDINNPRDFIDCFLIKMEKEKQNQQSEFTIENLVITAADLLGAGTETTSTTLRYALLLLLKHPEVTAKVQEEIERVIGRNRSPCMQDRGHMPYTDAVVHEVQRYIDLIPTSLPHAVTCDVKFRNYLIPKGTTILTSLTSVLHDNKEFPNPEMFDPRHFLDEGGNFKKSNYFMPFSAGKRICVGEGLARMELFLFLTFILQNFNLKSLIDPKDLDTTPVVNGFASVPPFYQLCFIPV

CC(NC(C)(C)C)C(=O)c1ccc(O)c(Cl)c1 (stereo not given)
Drug metabolism [1]: Metabolite_Notdetected | Drug metabolism [2]: Metabolite_Detected | Drug recovery [3]: 0.3 µmol | Drug excretion [4]: Metabolite_Detected | Drug recovery [5]: 29 µmol

[2H]C([2H])([2H])C(N[C@H](C)[C@@H](O)c1cccc(Cl)c1)(C([2H])([2H])[2H])C([2H])([2H])[2H]
Drug metabolism [6]: Metabolite_Notdetected

C[C@@H](NC(C)(C)C)[C@@H](O)c1cccc(Cl)c1
Drug metabolism [1]: Metabolite_Notdetected | Drug metabolism [2]: Metabolite_Detected | Drug recovery [3]: 610 µmol | Drug metabolism (Cytochrome P450 2C19 [7]): Metabolite_Detected | Drug recovery [5]: 250 µmol | Drug metabolism [8]: Metabolite_Detected

C[C@@H](NC(C)(C)C)[C@H](O)c1cccc(Cl)c1
Drug metabolism [1]: Metabolite_Notdetected | Drug metabolism (Cytochrome P450 2C19 [9]): Metabolite_Detected | Drug metabolism [2]: Metabolite_Detected | Drug recovery [3]: 63 µmol | Drug recovery [5]: 22 µmol | Drug metabolism [8]: Metabolite_Detected

C[C@@H](NC(C)(C)C)[C@@H](O)c1ccc(O)c(Cl)c1 (relative stereo)
Drug metabolism [10]: Metabolite_Detected | Drug recovery [3]: 0.9 µmol | Drug metabolism [11]: Metabolite_Detected | Drug excretion [4]: Metabolite_Detected | Drug metabolism [12]: Metabolite_Detected | Drug recovery [5]: 200 µmol | Drug metabolism [8]: Metabolite_Detected

CC(NC(C)(C)C)C(=O)c1cccc(Cl)c1 (stereo not given) [BUPROPION]
Drug metabolism [13]: Metabolite_Detected | Drug excretion [14]: 22 %ID | Drug metabolism [15]: Metabolite_Detected | Drug metabolism [16]: Metabolite_Detected | Drug metabolism [17]: Metabolite_Detected | Drug recovery [18]: 23 %ID | concentration [19]: 7 nM | concentration [20]: 12 nM | Drug recovery [21]: 23 %ID | Drug recovery [22]: 59 µmol | Drug metabolism [23]: Metabolite_Detected | Drug metabolism (Cytochrome P450 2C19 [24]): Metabolite_Detected | Drug metabolism [25]: Metabolite_Notdetected | Drug metabolism [12]: Metabolite_Detected | Drug metabolism [26]: Metabolite_Detected | Drug metabolism [27]: Metabolite_Detected | Drug metabolism [28]: Metabolite_Notdetected | Drug metabolism [29]: Metabolite_Detected | Drug recovery [30]: 23 %ID | Drug recovery [31]: 1.4 %ID | Drug excretion [32]: Metabolite_Detected | concentration [33]: 33 nM | Drug recovery [34]: 6.5 µmol | Drug metabolism [35]: Metabolite_Detected | Drug excretion [36]: 36 %ID | dose excreted [37]: 23%

CC1NC(C)(C)COC1(O)c1cccc(Cl)c1 (stereo not given)
Drug metabolism [1]: Metabolite_Notdetected | Drug metabolism [2]: Metabolite_Detected | Drug recovery [3]: 77 µmol | Drug recovery [5]: 110 µmol | Drug metabolism [8]: Metabolite_Notdetected

O=C(O)CNC(=O)c1cccc(Cl)c1
Drug recovery [3]: 167 µmol

C[C@@H](NC(C)(C)C)[C@H](O)c1ccc(O)c(Cl)c1
Drug metabolism [38]: Metabolite_Detected | Drug metabolism [10]: Metabolite_Detected | Drug metabolism [39]: Metabolite_Detected | Drug recovery [3]: 3.3 µmol | Drug excretion [4]: Metabolite_Detected | Drug metabolism [12]: Metabolite_Detected | Drug recovery [5]: 160 µmol | Drug metabolism [8]: Metabolite_Detected
